The values that follow come from patent US6599548B2, “Ambient stable beverage” (priority 2000, dated 2003).

Values after ≈ are worked out from the molar mass of the structure shown. Where two headings read alike, the source gives them in different places. Some results are limits rather than exact numbers.

Type in all cases: cell-based
Assay [1] has as its system fungi. Put plainly: Fungicidal activity of pasteurisation adjuncts at 50° C. versus 30° C. (MIC50). Conditions: for Importance: rating of importance as pasteurisation adjunct. As to the method:
In the table the minimum inhibitory concentration (MIC) is given for each compound as well as the molecular weight (M.W.), the logPoct and a rating of its importance. […] The logPoct, that is the logarithm of the partition coefficient of the relevant compound in octanol and thus a measure of its […], was determined using […]™ software from the CHEMOFFICE ULRA ENHANCED 2000™ software package (version 5.5) that is commercially available from CambridgeSoft.

The nature of assay [2]: Minimum inhibitory concentration (MIC) of antimicrobials / essential oils. The source says: The minimum inhibitory concentration (MIC) is given for each compound.
In each case the respective minimum inhibitory concentration (MIC) and their specific preferred concentration is also given.

The subject of assay [3] is yeast Saccharomyces cerevisiae X2180-1B. Put plainly: Yeast growth in Ready to Drink tea (0.14% tea, pH 3.4) after 2 min at temperature, OD 600 nm at 14 days. The conditions noted are these: RTD tea; for prevention of yeast growth by low levels of the adjunct: adjunct 0-12 ppm in combination with cinnamic acid 0-60 ppm.
Setting [4] is: read-out: MIC50 in ppm (in brackets under the mM value).
Where [5] appears, read: minimum inhibitory concentration, fungicidal activity when heated to 50° C.
[6] abbreviates: Table I, preferred essential oils.
Where [7] appears, read: Table II, particularly preferred essential oils.
The mark [8] stands for this setting: 20° C., adjunct 0-12 ppm, cinnamic acid 0-60 ppm.

In the case of `CCCCCC(=O)OCCC(C)C` [Isoamyl hexanoate], in assay [1], the Importance result is listed as “High”.
With `CCCCCCCOC(=O)CCC` [Heptyl butyrate], in assay [1], the Importance result was “High”.
Same read-out and setting: then `CCCCCCCCCCCCCC(=O)O` [Myristic acid], with “High”.
Regarding `CCCCCCCCCCCC(=O)O` [Lauric acid], the Importance result in assay [1] was “High”. The MIC50 in assay [1] (setting [4]) was 20 µg/mL.
`C=CC(C)(O)CCC=C(C)CCC=C(C)C` (centres unmarked) [Nerolidol]: in assay [1], the Importance result is listed as “High”.
Turning to `CCCCCCCCC(=O)OC` [Methyl nonanoate], the Importance result in assay [1] is “High”.
Same read-out and setting: then `C=CCCCCCCCCC(=O)OCC` [Ethyl 10-undecenoate], with “High”.
Regarding `CCCCCCCCCCC=CC=O` [2-Tridecenal], the Importance entry in assay [1] is reported as “High”. In addition, in assay [1] (setting [4]), the MIC50 was less than 9.8 µg/mL.
Regarding `O=C1CCCCCCCCCCCCCCO1` [w-Pentadecalactone], the “MIC50” value in assay [1] (setting [5]) is listed as 60 mM.
For the molecule `C/C(C=O)=C\c1ccccc1` [α-Methyl-trans-cinnamaldehyde], the “MIC (ppm)” value in assay [2] (setting [6]) is given as 58.4 ppm.
Consider `CCCCCCCCCCCCC=O` [Tridecanal], for which the Importance entry in assay [1] is “High”.
Still for that read-out and setting: then `CCCCCCCCCCC(=O)OC` [Methyl undecanoate], with “High”.
In the case of Tolualdehyde, the “MIC (ppm)” value in assay [2] (setting [6]) was determined as 240 ppm.
On to `CCCCCCCCCC(=O)OCC` [Ethyl decanoate], for which the Importance entry in assay [1] is listed as “High”.
In the case of `CC(=O)CC/C=C(\C)CCC=C(C)C` [Geranyl acetone], in assay [1], the Importance result is reported as “High”.
The same measure, in the same setting: the value for `CCCCCC(=O)OCCc1ccccc1` [Phenethyl hexanoate] was “High”.
For the molecule methyl decenoate, in assay [1], the “fungicidal activity at 30° C.” value is on record as “no fungicidal activity” and the “fungicidal activity when heated to 50° C.” value is listed as “significant fungicidal activity”.
For the molecule `CC1CCC(C(C)C)C(O)C1` (centres unmarked) [Neomenthol], the “MIC (ppm)” value in assay [2] (setting [6]) stood at 156 ppm.
Consider `CCCCCOC(=O)CCCCC` [Amyl hexanoate], for which the Importance entry in assay [1] is reported as “High”.
Regarding `CCCCCCCCCCCC(=O)OC` [Methyl laurate], in assay [1], the Importance entry is given as “High”.
Regarding `C=CCOC(=O)CCC1CCCCC1` [Allyl cyclohexanepropionate], the Importance result in assay [1] is reported as “High”.
For `CCCCCCCCC(=O)OCC` [Ethyl nonanoate], the Importance result in assay [1] is given as “High”.
For the molecule `O=C(O)C=Cc1ccccc1` [Cinnamic acid], the MIC in assay [2] (setting [6]) was 148 µg/mL (≈ 999 µM). Further, in assay [2] (setting [7]), the “MIC (ppm)” value turned out to be 148 ppm.
Take `C=C(C)C1CC=C(C)C(OC(=O)CC)C1` (centres unmarked) [Carvyl propionate]: the “MIC50” value in assay [1] (setting [5]) is reported as 5 mM.
As to `CC(=O)OC/C=C(\C)CCC=C(C)C` [Geranyl acetate], in assay [1], the Importance result was “High”.
As for `CC(C)c1ccc(CO)cc1` [Cumic alcohol], the “MIC (ppm)” value in assay [2] (setting [6]) and in assay [2] (setting [7]) was 450 ppm each time.
For `CCCC1CCCC(=O)O1` (centres unmarked) [δ-Octalactone], the “MIC (ppm)” value in assay [2] (setting [6]) is 568 ppm.
Regarding w-6-Hexadecalactone, the “MIC50” value in assay [1] (setting [5]) was 50 mM.
`CCCCCC1CCC(=O)O1` (centres unmarked) [γ-Nonanoic lactone]: the “MIC (ppm)” value in assay [2] (setting [6]) came to 63 ppm.
The molecule `CC(=O)OCc1ccc2c(c1)OCO2` [Piperonyl acetate] returned a minimum inhibitory concentration (MIC) in assay [2] (setting [6]) of 242 µg/mL. Further, the “MIC (ppm)” value in assay [2] (setting [7]) was determined as 242 ppm.
As for `CCCC(=O)OC/C=C(\C)CCC=C(C)C` [Geranyl butyrate], the Importance entry in assay [1] was “High”.
As to `CCCCCCOC(=O)CCCCC` [Hexyl hexanoate], in assay [1], the Importance entry is reported as “High”.
The same measure, in the same setting: the value for `CC(C)=CCC/C(C)=C\COC(=O)C(C)C` [Neryl isobutyrate] was “High”.
Regarding `CCCCCCCCCC(=O)OC` [Methyl decanoate], in assay [1], the Importance result was “High”.
For the molecule `CC1(C)C2CC=C(CO)C1C2` (centres unmarked) [Myrtenol], the “MIC (ppm)” value in assay [2] (setting [6]) and in assay [2] (setting [7]) was 137 ppm throughout.
Turning to `C=C1CC/C=C(\C)CC[C@@H]2[C@@H]1CC2(C)C` [β-Caryophylene], the “MIC50” value in assay [1] (setting [5]) came out at 70 mM.
Turning to `CCCCCCCCCCCC=O` [Lauric aldehyde], in assay [1] (setting [5]), the “MIC50” value is given as 0.2 mM and the “MIC50 in ppm (in brackets under the mM value)” value is listed as “(36 ppm”. In addition, the Importance result in assay [1] was “High”.
Consider `CC=CC=CC=O` [Sorbic aldehyde (2,4-hexadienal)], for which the “MIC (ppm)” value in assay [2] (setting [6]) amounted to 86 ppm.
On to `CCCCCCCCCC=CC=O` [2-Dodecenal], for which, in assay [1], the Importance result was “High”. The MIC50 in assay [1] (setting [4]) was less than 9 µg/mL.
In the case of `CCCCCCCCCCCCO` [Lauric alcohol], the “effect on yeast growth at low temperature” value (“effect on yeast growth” for short) in assay [3] (setting [8]) was “little effect”. In assay [3], the “prevention of yeast growth by low levels of the adjunct” value is listed as “prevention of yeast growth”. Besides, in assay [1] (setting [5]), the “MIC50” value worked out at 0.1 mM and the “MIC50 in ppm (in brackets under the mM value)” value is “(18.6 ppm”. In assay [1], the Importance entry is “High”.
Take `O=C(c1ccccc1)C(O)c1ccccc1` (centres unmarked) [Benzoin]: in assay [1], the Importance is given as 10.
Same read-out and setting: the value for `CC=CCCCCCCCC(=O)OC` [Methyl-9-undecenoate] was “High”.
For `CCCCCCCC1CCC(=O)O1` (centres unmarked) [γ-Undecalactone], in assay [2] (setting [6]), the “MIC (ppm)” value came out at 28 ppm.
Same read-out and setting: the value for `C=C(C)C1CCC(C)C(O)C1` (centres unmarked) [Dihydrocarveol] was 540 ppm.
Regarding `CCC(=O)OC/C=C(\C)CCC=C(C)C` [Geranyl propionate], the Importance entry in assay [1] is on record as “High”.
Consider `CCCCCCCCCCCCCO` [Tridecanol], for which the Importance result in assay [1] was “High”.
Consider `CCCCCCCCOC(=O)CCC` [Octyl butyrate], for which the Importance result in assay [1] is “High”.
For `CCCCCCC(=O)OCCCC` [Butyl heptanoate], the Importance result in assay [1] was “High”.
Turning to `CCCCCCCC=CC(=O)OCC` [Ethyl 2-decenoate], the Importance result in assay [1] is “High”.
As for `CCCCCCCCCC(C)=O` [2-Undecanone], in assay [1], the Importance entry is “High”.
Still for that read-out and setting: the value for `CC(C)C(=O)OCCOc1ccccc1` [2-Phenoxylethyl isobutyrate] was “High”; that for `CCCCCCCCCCOC(=O)CC` [Decyl propionate] was “High”.
Turning to `CCCCCCCCCCOC(C)=O` [Decyl acetate], in assay [3] (setting [8]), the “effect on yeast growth” value was “little effect”. For the same molecule, the “effect on yeast growth” value in assay [3] (FIGS. 23, 24, adjunct alone 0-200 ppm, low temperature) is “little effect”. In assay [3], the “prevention of yeast growth by low levels of the adjunct” value is reported as “prevention of yeast growth”. Further, in assay [1], the “fungicidal activity at 30° C.” value is reported as “no fungicidal activity”, the “fungicidal activity when heated to 50° C.” value is reported as “significant fungicidal activity” and the Importance entry is listed as “High”.
Turning to `CCCCCCCCCCCCC(=O)O` [Tridecanoic acid], in assay [1], the Importance entry is “High”.
As for `CCCCCCCCCOC(C)=O` [Nonyl acetate], the Importance result in assay [1] is given as “High”.

Usually MIC50 stands for the lowest concentration that inhibits either 50% of growth or 50% of the strains tested, depending on the study. What is called MIC is the smallest concentration in the dilution series that meets the test's criterion for growth inhibition. A lower MIC goes with a more susceptible organism.
